Laboratory results as given in US20250213700A1, “COMPOUNDS, COMPOSITIONS, AND METHODS FOR CELL-SPECIFIC PHARMACOLOGY” (Duke University, priority 2022, published 2025).

Experiments:
AMPAR = assay: acute striatal brain slice electrophysiology, AMPAR antagonism; format: cell-based, mouse
Procedure: Electrophysiology. Preparation of Brain slices: Mice (8-10 weeks) were injected AAV10 HaloTag™-dTomato to striatum or ventral tegmental area (VTA). After 3-5 weeks, mice were deeply anesthetized with isoflurane and euthanized by decapitation. Coronal brain slices ([…]) containing striatum or VTA were prepared by standard methods using a Vibratome (Leica, VT 1200S), in ice-cold high sucrose cutting solution containing (in mM) 220 sucrose, 3 KCl, 1.25 NaH2PO4, 25 NaHCO3, 12 MgSO4.7H2O, 10 glucose, and 0.2 CaCl2) bubbled with 95% O2 and 5% CO2. […]
Whole-cell patch-clamp recording: The brain slices or retinas were perfused with bubbled aCSF at 29-30° C. with a 2 ml/min flow rate. […] Series resistance was monitored using 5-10 mV hyperpolarizing step throughout the experiment, and cells were discarded if series resistance changed more than ˜15% during the experiment. […] Statistical significance was determined using Student's t or one-way or two-way ANOVA tests. eIPSCs or eEPSCs decay time constants were obtained by fitting a single-exponential function, I(t)=I exp(−t/T)+ISS, where I(t) is the amplitude of the current at time t and ISS is the steady-state current, I is instantaneous current subtracted from Iss, and t is the time constant of decay. […]

[1] = tested on: +HTP somatostatin interneurons and -HTP neurons of V1 visual cortex; assay: 2P calcium imaging of V1 visual responses after contralateral ventricle infusion, SOM-Cre mice; format: in vivo, mouse
Procedure: Top left: Mice expressing pan-neuronal GCaMP8s with SOM-specific ^+HTP. Window over V1. DART delivered via the contralateral ventricle. Bottom left: In-vivo and ex-vivo expression and dye capture. Right: Mice presented oriented visual gratings, 2P Ca^2+ imaging obtained before and 5-6 hr after infusion of 0.3 nmole Alexa647.1^DART.2+3 nmole YM90K.1^DART.2 (2 μL volume) into the contralateral ventricle.
Next, it was examined whether this strategy could deliver a pharmacologically active DART to genetically defined cells. A surgery was performed in which AAV DIO +HTPGPI was injected into the V1 visual cortex of SOM-Cre mice for cell-specific expression in somatostatin interneurons, along with a co-injected AAV-GCaMP8s virus for pan-neuronal neural activity monitoring. A cannula was implanted in the contralateral ventricle, and glass window over V1. Following surgical recovery, a mixture of YM90K.1DART.2+Alexa647.1DART.2 was infused. […] To test for pharmacological effects, 2P calcium imaging of +HTP and −HTP was performed while mice were presented with oriented gratings. A reduction in +HTP visual response was apparent 4 hours post DART infusion. This reduction persisted even after 24 hours post infusion.

[2] = 5-6 hr after infusion of 3 nmole with 0.3 nmole Alexa647.1DART.2

`COc1cc(CCCCl)ccc1CCOCCNC(=O)c1ccc(CNC(=O)CCOCCOCCOCCOCCOCCOCCOCCOCCOCCOCCOCCOCCOCCOCCOCCOCCOCCOCCOCCOCCOCCOCCOCCOCCOCCOCCOCCOCCOCCOCCOCCOCCOCCOCCOCCOCCn2cc(COCCOCCOCCOCCOCCOCCNC(=O)CCCn3c(=O)c(=O)[nH]c4cc([N+](=O)[O-])c(-n5ccnc5)cc43)nn2)cc1` [YM90K.1DART.2] was tested, and the “acceleration in comparison to predecessor” value (AMPAR) was roughly 10 fold, the “time to half-block of AMPAR” value (AMPAR; +HTP neurons, 0.3 µM dose) was 5 min and the “responses in +HTP SOM cells” value [1, 2] was “reduced”. For the same molecule, the “responses in -HTP putative pyramidal cells” value [1, 2] was “unchanged or increased”, the “+HTP visual response” value ([1]; 4 hours post DART infusion) was “reduction” and the “-HTP cells visual response” value ([1]; 24 hours post infusion) was “no change or increase in visual response”. For the same molecule, the “+HTP cells visual response relative to pre-DART” value ([1]; 24 hours post infusion, 50% contrast) was “decrease in visual response”.
